# Patent US20100242139A1, “XENOHORMESIS BASED COMPOSITIONS AND METHODS” (President and Fellows of Harvard College, priority 2006, published 2010)
# How the values were obtained:
# Type in all cases: biochemical
# CDK1/cyclinB(h) = CDK1/cyclinB(h) (Homo sapiens, UniProt P06493); test: kinase panel activity, CDK1/cyclinB(h); conditions: compound at 20 μM; vs reference with no compound
# Rsk1(h) = Rsk1(h) (Homo sapiens, UniProt Q15418); test: kinase panel activity, Rsk1(h); conditions: compound at 20 μM; vs reference with no compound
# ALK4(h) = ALK4(h) (Homo sapiens, UniProt P36896); test: kinase panel activity, ALK4(h); conditions: compound at 20 μM; vs reference with no compound
# TBK1(h) = TBK1(h) (Homo sapiens, UniProt Q9UHD2); test: kinase panel activity, TBK1(h); conditions: compound at 20 μM; vs reference with no compound
# MAPK2(h) = MAPK2(h) (Homo sapiens, UniProt P28482); test: kinase panel activity, MAPK2(h); conditions: compound at 20 μM; vs reference with no compound
# NEK6(h) = NEK6(h) (Homo sapiens, UniProt Q9HC98); test: kinase panel activity, NEK6(h); conditions: compound at 20 μM; vs reference with no compound
# Fms(h) = Fms(h) (Homo sapiens, UniProt P07333); test: kinase panel activity, Fms(h); conditions: compound at 20 μM; vs reference with no compound
# TrkA(h) = TrkA(h) (Homo sapiens, UniProt P04629); test: kinase panel activity, TrkA(h); conditions: compound at 20 μM; vs reference with no compound
# SAPK3(h) = SAPK3(h) (Homo sapiens, UniProt P53778); test: kinase panel activity, SAPK3(h); conditions: compound at 20 μM; vs reference with no compound
# IR(h) = IR(h) (Homo sapiens, UniProt P06213); test: kinase panel activity, IR(h); conditions: compound at 20 μM; vs reference with no compound
# Chain of IR(h) (P06213 28-1382): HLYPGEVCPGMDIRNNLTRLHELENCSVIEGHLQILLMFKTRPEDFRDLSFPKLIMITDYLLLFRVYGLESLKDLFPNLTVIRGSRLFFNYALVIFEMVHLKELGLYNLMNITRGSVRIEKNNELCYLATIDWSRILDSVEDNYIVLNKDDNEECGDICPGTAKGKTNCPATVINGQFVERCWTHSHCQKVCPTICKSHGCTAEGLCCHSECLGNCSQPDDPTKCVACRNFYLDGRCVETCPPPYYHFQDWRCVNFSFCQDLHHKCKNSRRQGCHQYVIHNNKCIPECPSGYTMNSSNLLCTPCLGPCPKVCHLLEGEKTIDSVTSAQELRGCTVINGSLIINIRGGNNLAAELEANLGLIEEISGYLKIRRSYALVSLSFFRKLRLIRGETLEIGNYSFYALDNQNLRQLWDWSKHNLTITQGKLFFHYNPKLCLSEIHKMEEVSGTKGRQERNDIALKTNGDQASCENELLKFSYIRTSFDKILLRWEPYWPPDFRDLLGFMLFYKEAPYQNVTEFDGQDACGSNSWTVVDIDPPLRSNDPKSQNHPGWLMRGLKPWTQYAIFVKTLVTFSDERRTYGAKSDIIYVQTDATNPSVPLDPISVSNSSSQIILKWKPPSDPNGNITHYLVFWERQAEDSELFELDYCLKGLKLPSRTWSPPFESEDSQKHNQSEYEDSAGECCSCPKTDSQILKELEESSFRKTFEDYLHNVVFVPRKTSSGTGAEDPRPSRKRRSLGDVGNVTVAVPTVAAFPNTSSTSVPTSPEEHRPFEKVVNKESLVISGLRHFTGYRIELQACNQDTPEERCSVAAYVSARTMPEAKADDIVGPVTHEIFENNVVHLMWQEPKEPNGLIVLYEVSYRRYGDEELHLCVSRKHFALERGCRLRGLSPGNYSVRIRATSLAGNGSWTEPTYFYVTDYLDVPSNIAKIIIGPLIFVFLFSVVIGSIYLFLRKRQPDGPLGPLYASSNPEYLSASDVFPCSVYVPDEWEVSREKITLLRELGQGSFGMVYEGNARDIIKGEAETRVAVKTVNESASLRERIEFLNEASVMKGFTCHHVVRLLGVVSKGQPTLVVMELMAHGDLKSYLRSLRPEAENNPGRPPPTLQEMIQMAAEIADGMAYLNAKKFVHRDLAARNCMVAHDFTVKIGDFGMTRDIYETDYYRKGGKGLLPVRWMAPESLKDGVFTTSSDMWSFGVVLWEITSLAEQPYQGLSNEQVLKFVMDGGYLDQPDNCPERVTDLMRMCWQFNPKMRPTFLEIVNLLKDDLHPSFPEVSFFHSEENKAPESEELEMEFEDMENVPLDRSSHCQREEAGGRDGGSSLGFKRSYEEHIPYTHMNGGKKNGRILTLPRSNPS
# GSK3β(h) = GSK3β(h) (Homo sapiens, UniProt P49841); test: kinase panel activity, GSK3β(h); conditions: compound at 20 μM; vs reference with no compound
# CDK7/cyclinH/MAT1(h) = CDK7/cyclinH/MAT1(h) (Homo sapiens, UniProt P50613); test: kinase panel activity, CDK7/cyclinH/MAT1(h); conditions: compound at 20 μM; vs reference with no compound
# SGK(h) = SGK(h) (Homo sapiens, UniProt O00141); test: kinase panel activity, SGK(h); conditions: compound at 20 μM; vs reference with no compound
# Chain of SGK(h) (O00141 whole entry): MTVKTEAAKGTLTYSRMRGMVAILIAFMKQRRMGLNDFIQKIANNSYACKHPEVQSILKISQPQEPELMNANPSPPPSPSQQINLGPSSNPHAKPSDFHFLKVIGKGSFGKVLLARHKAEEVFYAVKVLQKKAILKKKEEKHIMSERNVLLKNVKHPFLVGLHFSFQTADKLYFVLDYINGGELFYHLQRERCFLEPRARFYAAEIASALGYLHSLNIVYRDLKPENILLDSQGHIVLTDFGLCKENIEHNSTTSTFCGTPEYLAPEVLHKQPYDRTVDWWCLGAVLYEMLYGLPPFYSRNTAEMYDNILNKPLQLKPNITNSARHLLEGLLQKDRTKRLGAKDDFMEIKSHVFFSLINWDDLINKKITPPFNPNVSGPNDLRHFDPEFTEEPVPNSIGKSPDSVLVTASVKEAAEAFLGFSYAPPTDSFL
# CDK9/cyclin T1(h) = CDK9/cyclin T1(h) (Homo sapiens, UniProt P50750); test: kinase panel activity, CDK9/cyclin T1(h); conditions: compound at 20 μM; vs reference with no compound
# PKG1β(h) = PKG1β(h) (Homo sapiens, UniProt Q13976); test: kinase panel activity, PKG1β(h); conditions: compound at 20 μM; vs reference with no compound
# Chain of PKG1β(h) (Q13976 1-686 isoform Q13976-2): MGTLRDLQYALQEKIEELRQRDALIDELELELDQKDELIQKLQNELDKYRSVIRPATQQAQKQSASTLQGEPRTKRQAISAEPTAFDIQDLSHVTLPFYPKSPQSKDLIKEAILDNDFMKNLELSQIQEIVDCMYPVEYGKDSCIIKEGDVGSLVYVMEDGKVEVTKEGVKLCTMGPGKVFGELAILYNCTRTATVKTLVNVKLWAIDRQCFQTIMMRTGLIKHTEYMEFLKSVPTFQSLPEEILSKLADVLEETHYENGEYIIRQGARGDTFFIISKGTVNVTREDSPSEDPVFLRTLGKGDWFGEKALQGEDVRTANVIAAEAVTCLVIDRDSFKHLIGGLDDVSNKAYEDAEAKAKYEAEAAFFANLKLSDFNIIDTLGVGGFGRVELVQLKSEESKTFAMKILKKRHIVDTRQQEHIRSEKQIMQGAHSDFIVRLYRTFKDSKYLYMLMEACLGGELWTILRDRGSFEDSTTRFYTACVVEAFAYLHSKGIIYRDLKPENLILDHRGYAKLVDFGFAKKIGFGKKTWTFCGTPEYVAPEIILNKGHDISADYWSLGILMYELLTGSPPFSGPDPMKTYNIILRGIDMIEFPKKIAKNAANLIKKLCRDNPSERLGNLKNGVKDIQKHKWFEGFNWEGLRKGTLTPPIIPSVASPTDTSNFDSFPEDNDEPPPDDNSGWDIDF
# TAK1(h) = TAK1(h) (Homo sapiens, UniProt O43318); test: kinase panel activity, TAK1(h); conditions: compound at 20 μM; vs reference with no compound
# ALK(h) = ALK(h) (Homo sapiens, UniProt Q9UM73); test: kinase panel activity, ALK(h); conditions: compound at 20 μM; vs reference with no compound
# PAK4(h) = PAK4(h) (Homo sapiens, UniProt O96013); test: kinase panel activity, PAK4(h); conditions: compound at 20 μM; vs reference with no compound
# NEK2(h) = NEK2(h) (Homo sapiens, UniProt P51955); test: kinase panel activity, NEK2(h); conditions: compound at 20 μM; vs reference with no compound
# CDK5/p25(h) = CDK5/p25(h) (Homo sapiens, UniProt Q00535); test: kinase panel activity, CDK5/p25(h); conditions: compound at 20 μM; vs reference with no compound
# MSK1(h) = MSK1(h) (Homo sapiens, UniProt O75582); test: kinase panel activity, MSK1(h); conditions: compound at 20 μM; vs reference with no compound
# DAPK2(h) = DAPK2(h) (Homo sapiens, UniProt Q9UIK4); test: kinase panel activity, DAPK2(h); conditions: compound at 20 μM; vs reference with no compound
# PKCα(h) = PKCα(h) (Homo sapiens, UniProt P17252); test: kinase panel activity, PKCα(h); conditions: compound at 20 μM; vs reference with no compound
# SAPK4(h) = SAPK4(h) (Homo sapiens, UniProt O15264); test: kinase panel activity, SAPK4(h); conditions: compound at 20 μM; vs reference with no compound
# LIMK1(h) = LIMK1(h) (Homo sapiens, UniProt P53667); test: kinase panel activity, LIMK1(h); conditions: compound at 20 μM; vs reference with no compound
# SGK2(h) = SGK2(h) (Homo sapiens, UniProt Q9HBY8); test: kinase panel activity, SGK2(h); conditions: compound at 20 μM; vs reference with no compound
# p70S6K(h) = p70S6K(h) (Homo sapiens, UniProt P23443); test: kinase panel activity, p70S6K(h); conditions: compound at 20 μM; vs reference with no compound
# Chain of p70S6K(h) (P23443 whole entry): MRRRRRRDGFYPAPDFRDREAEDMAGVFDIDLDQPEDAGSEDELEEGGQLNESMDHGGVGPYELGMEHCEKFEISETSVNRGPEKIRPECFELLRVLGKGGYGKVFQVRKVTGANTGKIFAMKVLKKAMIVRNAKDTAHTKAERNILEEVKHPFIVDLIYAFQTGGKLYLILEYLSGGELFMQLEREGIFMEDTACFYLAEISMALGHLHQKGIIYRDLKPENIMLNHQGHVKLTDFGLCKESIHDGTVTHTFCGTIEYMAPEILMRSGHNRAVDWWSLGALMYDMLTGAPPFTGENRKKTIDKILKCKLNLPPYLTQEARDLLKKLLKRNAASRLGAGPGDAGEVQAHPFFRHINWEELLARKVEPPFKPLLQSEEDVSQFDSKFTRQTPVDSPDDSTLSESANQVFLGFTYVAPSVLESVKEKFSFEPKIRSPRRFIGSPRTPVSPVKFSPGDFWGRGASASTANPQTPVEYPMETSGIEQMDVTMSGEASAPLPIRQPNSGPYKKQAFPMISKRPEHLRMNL
# FGFR1(h) = FGFR1(h) (Homo sapiens, UniProt P11362); test: kinase panel activity, FGFR1(h); conditions: compound at 20 μM; vs reference with no compound
# CHK2(h) = CHK2(h) (Homo sapiens, UniProt O96017); test: kinase panel activity, CHK2(h); conditions: compound at 20 μM; vs reference with no compound
# NEK7(h) = NEK7(h) (Homo sapiens, UniProt Q8TDX7); test: kinase panel activity, NEK7(h); conditions: compound at 20 μM; vs reference with no compound
# ZAP-70(h) = ZAP-70(h) (Homo sapiens, UniProt P43403); test: kinase panel activity, ZAP-70(h); conditions: compound at 20 μM; vs reference with no compound
# Met(h) = Met(h) (Homo sapiens, UniProt P08581); test: kinase panel activity, Met(h); conditions: compound at 20 μM; vs reference with no compound
# Chain of Met(h) (P08581 25-1390): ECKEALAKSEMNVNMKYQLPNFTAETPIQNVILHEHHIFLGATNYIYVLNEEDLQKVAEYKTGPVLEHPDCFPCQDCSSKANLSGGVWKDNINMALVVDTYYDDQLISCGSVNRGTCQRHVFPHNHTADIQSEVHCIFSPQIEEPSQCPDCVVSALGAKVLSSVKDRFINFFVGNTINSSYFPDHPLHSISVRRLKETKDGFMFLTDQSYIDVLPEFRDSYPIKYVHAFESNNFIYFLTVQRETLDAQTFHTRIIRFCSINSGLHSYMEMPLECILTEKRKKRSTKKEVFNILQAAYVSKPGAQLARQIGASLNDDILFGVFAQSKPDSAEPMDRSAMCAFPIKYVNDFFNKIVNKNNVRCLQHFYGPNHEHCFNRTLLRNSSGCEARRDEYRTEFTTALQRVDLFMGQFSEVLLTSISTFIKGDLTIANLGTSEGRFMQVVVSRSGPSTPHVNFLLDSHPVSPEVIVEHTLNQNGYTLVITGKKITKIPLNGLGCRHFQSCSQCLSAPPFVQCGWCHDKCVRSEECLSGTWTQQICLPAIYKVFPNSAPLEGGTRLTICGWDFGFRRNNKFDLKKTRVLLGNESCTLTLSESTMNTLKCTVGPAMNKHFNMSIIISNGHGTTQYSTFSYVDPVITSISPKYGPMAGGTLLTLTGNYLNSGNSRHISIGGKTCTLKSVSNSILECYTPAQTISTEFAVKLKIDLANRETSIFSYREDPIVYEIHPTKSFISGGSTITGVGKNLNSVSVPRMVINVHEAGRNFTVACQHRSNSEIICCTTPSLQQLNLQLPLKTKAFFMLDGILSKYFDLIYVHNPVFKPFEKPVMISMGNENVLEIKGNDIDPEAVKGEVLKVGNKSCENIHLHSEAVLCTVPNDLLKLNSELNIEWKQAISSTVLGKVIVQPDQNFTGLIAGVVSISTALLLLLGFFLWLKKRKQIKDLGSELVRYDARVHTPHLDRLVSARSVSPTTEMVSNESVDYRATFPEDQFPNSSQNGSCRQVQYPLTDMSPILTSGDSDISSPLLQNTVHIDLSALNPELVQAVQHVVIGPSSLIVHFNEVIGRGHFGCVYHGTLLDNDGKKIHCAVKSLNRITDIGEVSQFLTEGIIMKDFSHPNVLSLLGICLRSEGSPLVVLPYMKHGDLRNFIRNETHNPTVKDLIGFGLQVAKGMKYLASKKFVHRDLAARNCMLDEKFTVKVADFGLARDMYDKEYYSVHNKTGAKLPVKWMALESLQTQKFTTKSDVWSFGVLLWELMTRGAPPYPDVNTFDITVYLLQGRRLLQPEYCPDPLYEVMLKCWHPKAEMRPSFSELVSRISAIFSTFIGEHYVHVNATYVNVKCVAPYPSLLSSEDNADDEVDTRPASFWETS
# Rsk2(h) = Rsk2(h) (Homo sapiens, UniProt P51812); test: kinase panel activity, Rsk2(h); conditions: for percent activity of Rsk2(h): compound at 20 μM, vs reference with no compound
# Chain of Rsk2(h) (P51812 whole entry): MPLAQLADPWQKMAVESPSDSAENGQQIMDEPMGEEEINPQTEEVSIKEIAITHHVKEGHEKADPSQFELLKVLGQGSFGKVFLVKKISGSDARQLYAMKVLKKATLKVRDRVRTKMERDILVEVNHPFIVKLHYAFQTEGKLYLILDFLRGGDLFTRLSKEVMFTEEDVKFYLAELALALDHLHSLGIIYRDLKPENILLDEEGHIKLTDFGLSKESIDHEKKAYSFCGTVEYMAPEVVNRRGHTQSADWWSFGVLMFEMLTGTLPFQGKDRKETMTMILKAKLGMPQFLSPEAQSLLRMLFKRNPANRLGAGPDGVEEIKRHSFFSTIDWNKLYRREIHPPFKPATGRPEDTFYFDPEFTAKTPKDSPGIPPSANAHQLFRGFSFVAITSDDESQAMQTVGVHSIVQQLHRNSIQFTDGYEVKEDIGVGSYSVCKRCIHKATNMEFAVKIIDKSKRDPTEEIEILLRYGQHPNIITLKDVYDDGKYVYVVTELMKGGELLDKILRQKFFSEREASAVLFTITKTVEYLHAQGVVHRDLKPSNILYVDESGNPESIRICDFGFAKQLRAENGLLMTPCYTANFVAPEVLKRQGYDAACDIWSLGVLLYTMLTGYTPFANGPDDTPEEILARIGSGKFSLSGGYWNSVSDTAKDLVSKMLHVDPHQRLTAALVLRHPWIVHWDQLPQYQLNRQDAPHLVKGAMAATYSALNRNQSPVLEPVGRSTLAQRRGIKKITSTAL
# MSK2(h) = MSK2(h) (Homo sapiens, UniProt O75676); test: kinase panel activity, MSK2(h); conditions: compound at 20 μM; vs reference with no compound
# PKA(h) = PKA(h) (Homo sapiens, UniProt P17612); test: kinase panel activity, PKA(h); conditions: compound at 20 μM; vs reference with no compound
# PDGFRα(h) = PDGFRα(h) (Homo sapiens, UniProt P16234); test: kinase panel activity, PDGFRα(h); conditions: compound at 20 μM; vs reference with no compound
# Pim-2(h) = Pim-2(h) (Homo sapiens, UniProt Q9P1W9); test: kinase panel activity, Pim-2(h); conditions: compound at 20 μM; vs reference with no compound
# NEK3(h) = NEK3(h) (Homo sapiens, UniProt P51956); test: kinase panel activity, NEK3(h); conditions: compound at 20 μM; vs reference with no compound
# CDK6/cyclinD3(h) = CDK6/cyclinD3(h) (Homo sapiens, UniProt Q00534); test: kinase panel activity, CDK6/cyclinD3(h); conditions: compound at 20 μM; vs reference with no compound
# IRAK1(h) = IRAK1(h) (Homo sapiens, UniProt P51617); test: kinase panel activity, IRAK1(h); conditions: compound at 20 μM; vs reference with no compound
smiles,measurement,setting,value
"Oc1ccc(C=Cc2cc(O)cc(O)c2)cc1 [resveratrol, 3,5,4′-trihydroxystilbene]",percent activity of CDK1/cyclinB(h),CDK1/cyclinB(h),67%
same,percent activity of Rsk1(h),Rsk1(h),70%
same,percent activity of ALK4(h),ALK4(h),110%
same,percent activity of TBK1(h),TBK1(h),62%
same,percent activity of MAPK2(h),MAPK2(h),101%
same,percent activity of NEK6(h),NEK6(h),140%
same,percent activity of Fms(h),Fms(h),61%
same,percent activity of TrkA(h),TrkA(h),31%
same,percent activity of SAPK3(h),SAPK3(h),110%
same,percent activity of IR(h),IR(h),71%
same,percent activity of GSK3β(h),GSK3β(h),92%
same,percent activity of CDK7/cyclinH/MAT1(h),CDK7/cyclinH/MAT1(h),95%
same,percent activity of SGK(h),SGK(h),86%
same,percent activity of CDK9/cyclin T1(h),CDK9/cyclin T1(h),70%
same,percent activity of PKG1β(h),PKG1β(h),56%
same,percent activity of TAK1(h),TAK1(h),105%
same,percent activity of ALK(h),ALK(h),39%
same,percent activity of PAK4(h),PAK4(h),103%
same,percent activity of NEK2(h),NEK2(h),102%
same,percent activity of CDK5/p25(h),CDK5/p25(h),64%
same,percent activity of MSK1(h),MSK1(h),58%
same,percent activity of DAPK2(h),DAPK2(h),67%
same,percent activity of PKCα(h),PKCα(h),114%
same,percent activity of SAPK4(h),SAPK4(h),92%
same,percent activity of LIMK1(h),LIMK1(h),84%
same,percent activity of SGK2(h),SGK2(h),70%
same,percent activity of p70S6K(h),p70S6K(h),21%
same,percent activity of FGFR1(h),FGFR1(h),58%
same,percent activity of CHK2(h),CHK2(h),59%
same,percent activity of NEK7(h),NEK7(h),116%
same,percent activity of ZAP-70(h),ZAP-70(h),141%
same,percent activity of Met(h),Met(h),114%
same,inhibition at 20 µM,Rsk2(h),68%
same,percent activity of Rsk2(h),Rsk2(h),32%
same,percent activity of MSK2(h),MSK2(h),60%
same,percent activity of PKA(h),PKA(h),100%
same,percent activity of PDGFRα(h),PDGFRα(h),114%
same,percent activity of Pim-2(h),Pim-2(h),14%
same,percent activity of NEK3(h),NEK3(h),96%
same,percent activity of CDK6/cyclinD3(h),CDK6/cyclinD3(h),55%
same,percent activity of IRAK1(h),IRAK1(h),97%
"O=C(O)[C@H]1O[C@@H](Oc2ccc(/C=C/c3cc(O)cc(O)c3)cc2)[C@H](O)[C@@H](O)[C@@H]1O [Res 4′-Gluc, resveratrol-4-glucuronide]",percent activity of CDK1/cyclinB(h),CDK1/cyclinB(h),104%
same,percent activity of Rsk1(h),Rsk1(h),104%
same,percent activity of ALK4(h),ALK4(h),104%
same,percent activity of TBK1(h),TBK1(h),80%
same,percent activity of MAPK2(h),MAPK2(h),105%
same,percent activity of NEK6(h),NEK6(h),107%
same,percent activity of Fms(h),Fms(h),94%
same,percent activity of TrkA(h),TrkA(h),32%
same,percent activity of SAPK3(h),SAPK3(h),106%
same,percent activity of IR(h),IR(h),80%
same,percent activity of GSK3β(h),GSK3β(h),88%
same,percent activity of CDK7/cyclinH/MAT1(h),CDK7/cyclinH/MAT1(h),110%
same,percent activity of SGK(h),SGK(h),48%
same,percent activity of CDK9/cyclin T1(h),CDK9/cyclin T1(h),105%
same,percent activity of PKG1β(h),PKG1β(h),58%
same,percent activity of TAK1(h),TAK1(h),113%
same,percent activity of ALK(h),ALK(h),87%
same,percent activity of PAK4(h),PAK4(h),107%
same,percent activity of NEK2(h),NEK2(h),103%
same,percent activity of CDK5/p25(h),CDK5/p25(h),91%
same,percent activity of MSK1(h),MSK1(h),110%
same,percent activity of DAPK2(h),DAPK2(h),92%
same,percent activity of PKCα(h),PKCα(h),100%
same,percent activity of SAPK4(h),SAPK4(h),104%
same,percent activity of LIMK1(h),LIMK1(h),91%
same,percent activity of SGK2(h),SGK2(h),91%
same,percent activity of p70S6K(h),p70S6K(h),54%
same,percent activity of FGFR1(h),FGFR1(h),45%
same,percent activity of CHK2(h),CHK2(h),95%
same,percent activity of NEK7(h),NEK7(h),112%
same,percent activity of ZAP-70(h),ZAP-70(h),125%
same,percent activity of Met(h),Met(h),122%
same,percent activity of Rsk2(h),Rsk2(h),100%
same,percent activity of MSK2(h),MSK2(h),94%
same,percent activity of PKA(h),PKA(h),105%
same,percent activity of PDGFRα(h),PDGFRα(h),114%
same,percent activity of Pim-2(h),Pim-2(h),76%
same,percent activity of NEK3(h),NEK3(h),105%
same,percent activity of CDK6/cyclinD3(h),CDK6/cyclinD3(h),95%
same,percent activity of IRAK1(h),IRAK1(h),100%
